Experimental findings from US6458802B1, “Antidepressant azaheterocyclymethyl derivatives of 2,3-dihydro-1,4-dioxino [2,3-f]quinoline” (Wyeth, priority 2001, dated 2002) are described below.

Counter-ions that a name gives are not always drawn. Like-named read-outs stand apart in the source and are kept apart here.

As a reminder, the melting point is the temperature of the solid-liquid transition. A word on the Ki: it is a measure of affinity in units of concentration, obtained from inhibition or displacement. For orientation: IC50 means the midpoint of a concentration-inhibition curve.

One data set deals with T1, human 5HT1A receptors (Homo sapiens, UniProt P08908).
T1 construct: expressed in transfected cells; host or cells: CHO cells
T1 sequence (P08908 1-422): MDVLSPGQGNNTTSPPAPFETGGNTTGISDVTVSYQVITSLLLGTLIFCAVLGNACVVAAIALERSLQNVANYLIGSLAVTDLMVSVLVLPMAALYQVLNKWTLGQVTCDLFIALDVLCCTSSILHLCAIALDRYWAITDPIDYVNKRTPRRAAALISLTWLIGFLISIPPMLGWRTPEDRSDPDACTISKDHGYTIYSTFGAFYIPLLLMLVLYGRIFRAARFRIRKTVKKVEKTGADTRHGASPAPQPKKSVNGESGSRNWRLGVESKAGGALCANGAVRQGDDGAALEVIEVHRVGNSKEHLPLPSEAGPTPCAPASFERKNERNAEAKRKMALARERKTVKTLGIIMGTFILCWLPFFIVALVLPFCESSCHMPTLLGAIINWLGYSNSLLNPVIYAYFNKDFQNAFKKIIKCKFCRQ
Description: [3H] 8-OH-DPAT displacement from the 5HT1A serotonin receptor (transfected CHO cells). In kind it is binding. The source says: High affinity for the serotonin 5HT1A receptor was established by testing the claimed compound's ability to displace [^3H] 8-OH-DPAT (dipropylamino-tetralin) from the 5HT1A serotonin receptor following a modification of the procedure of Hall et al., J. Neurochem. 44, 1685 (1985) which utilizes CHO cells stably transfected with human 5HT1A receptors.

The target of the next data set is T2, serotonin transporter (Rattus norvegicus, UniProt P31652).
T2 construct: displace ^3H-paroxetine from male rat frontal cortical membranes; from tissue; host or cells: male rat frontal cortex membranes
T2 sequence (P31652 whole entry): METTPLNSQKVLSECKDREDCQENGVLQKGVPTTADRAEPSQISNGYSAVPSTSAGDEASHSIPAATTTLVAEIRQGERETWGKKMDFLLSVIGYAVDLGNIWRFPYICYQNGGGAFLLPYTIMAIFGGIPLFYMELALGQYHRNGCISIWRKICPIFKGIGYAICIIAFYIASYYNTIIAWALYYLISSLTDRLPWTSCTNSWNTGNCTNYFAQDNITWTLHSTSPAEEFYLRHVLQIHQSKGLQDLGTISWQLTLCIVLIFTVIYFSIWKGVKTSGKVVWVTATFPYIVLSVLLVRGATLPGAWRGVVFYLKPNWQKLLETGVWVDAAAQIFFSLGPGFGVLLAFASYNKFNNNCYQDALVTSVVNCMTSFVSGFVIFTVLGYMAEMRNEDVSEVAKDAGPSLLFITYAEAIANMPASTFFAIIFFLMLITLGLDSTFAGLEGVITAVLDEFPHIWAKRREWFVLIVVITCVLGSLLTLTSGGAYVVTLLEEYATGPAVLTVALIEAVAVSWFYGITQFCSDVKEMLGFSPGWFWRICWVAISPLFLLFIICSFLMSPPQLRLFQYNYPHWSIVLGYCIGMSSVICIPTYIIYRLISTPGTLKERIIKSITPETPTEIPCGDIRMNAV
Description: 3H-paroxetine displacement, affinity for the serotonin transporter. In kind it is binding.

For data set [1], the target named is T3, cloned human 5HT1A receptors (Homo sapiens, UniProt P08908).
T3 construct: expressed in transfected cells
T3 sequence (P08908 1-422): T1 sequence (P08908 1-422)
Description: 35S-GTPγS binding assay, antagonist activity at 5HT1A receptors. It is filed as biochemical. As to conditions: for IC50: 35S-GTPγS binding, reversal of the effects of the standard agonist 8-OH-DPAT, membranes with cloned human 5HT1A receptors, read-out: 5HT1A Function IC50; for Emax: maximum inhibitory effect in 35S-GTPγS binding versus 8-OH-DPAT, read-out: 5HT1A Function (Imax). How it is done:
Antagonist activity at 5HT1A receptors was established by using a ^35S-GTPγS binding assay similar to that used by Lazareno and Birdsall (Br. J. Pharmacol. 109: 1120, 1993), in which the test compound's ability to affect the binding of 35S-GTPγS to membranes containing cloned human 5HT1A receptors was determined. Agonists produce an increase in binding whereas antagonists produce no increase but rather reverse the effects of the standard agonist 8-OH-DPAT. The test compound's maximum inhibitory effect is represented as the 1max, while its potency is defined by the IC50.
In general terms: Binding of GTPγS marks nucleotide exchange on a G protein.

Where [2] appears, read: displacement of [3H] 8-OH-DPAT, CHO cells stably transfected with human 5HT1A receptors, read-out: 5HT1A Receptor Affinity KI.

Turning to `CCc1ccc2c3c(ccc2n1)OCC(CN1CC=C(c2c[nH]c4ccccc24)CC1)O3` (centres unmarked) [Example 13, 8-Ethyl-2-[(4-(1H-indol-3-yl)-3,6-dihydropyridin-1(2H)-yl)methyl]-2,3-dihydro[1,4]dioxino[2,3-f]quinoline], the melting point was 190 °C. At human 5HT1A receptors, this compound had a Ki of 6.82 nM. The compound further returned an inhibition constant (Ki) on serotonin transporter of 4.9 nM. For the same compound, in data set [1], the IC50 came to 162 nM and the Emax was determined as 88.7%.

As to `Cc1cnc2ccc3c(c2c1)OC(CN1CC=C(c2c[nH]c4ccccc24)CC1)CO3` (centres unmarked) [Example 23, 2-[4-(1H-Indol-3-yl)-3,6-dihydro-2H-pyridin-1-ylmethyl]-9-methyl-2,3-dihydro[1,4]dioxino[2,3-f]quinoline], the melting point lay in the range of 211 to 213 °C. Further, the Ki at human 5HT1A receptors (setting [2]) stood at 7.76 nM. Besides, the Ki on serotonin transporter stood at 28 nM.

The compound `Cc1ccc2c3c(ccc2n1)OCC(CN1CCC(Cc2c[nH]c4ccc(F)cc24)CC1)O3` (centres unmarked) [Example 8, 2-({4-[(5-Fluoro-1H-indol-3-yl)methyl]piperidin-1-yl}methyl)-8-methyl-2,3-dihydro[1,4]dioxino[2,3-f]quinoline] yielded a melting point of 91 to 92 °C. In addition, at human 5HT1A receptors (setting [2]), the Ki amounted to 7.24 nM. Also, at serotonin transporter (displacement of 3H-paroxetine from male rat frontal cortical membranes, read-out: 5-HT Transporter Affinity KI), the Ki was found to be 2.56 nM.

Compound `Cc1ccc2c3c(ccc2n1)OCC(CN1CC=C(c2c[nH]c4ccccc24)CC1)O3` (centres unmarked) [Example 9, 2-[4-(1H-Indol-3-yl)-3,6-dihydro-2H-yridin-1-ylmethyl]-8-methyl-2,3-dihydro[1,4]dioxino[2,3-f]quinoline] had a melting point of 210 °C. In addition, the Ki at human 5HT1A receptors is 3.02 nM. In addition, the Ki at serotonin transporter turned out to be 2.34 nM. For the same compound, in data set [1], the IC50 amounted to 56.7 nM and the Emax stood at 98.3%.

The compound `NC(=O)c1ccc2[nH]cc(C3=CCN(C[C@H]4COc5ccc6ncccc6c5O4)CC3)c2c1` (as salt: fumarate) (hydrate or solvate) [Example 6, 3-[1-(2,3-Dihydro[1,4]dioxino[2,3-f]qiuinolin-2-ylmethyl)-1,2,3,6-tetrahydropyridin-4-yl]-1H-indole-5-carboxylic Acid Amide] yielded a melting point of 219 °C.

For `Cc1ccc2c3c(ccc2n1)OCC(CN1CC=C(c2c[nH]c4ccc(F)cc24)CC1)O3` (centres unmarked) (as salt: fumarate) (hydrate or solvate) [Example 11, 2-[4-(5-Fluoro-1H-indol-3-yl)-3,6-dihydro-2H-pyridin-1-ylmethyl]-8-methyl-2,3-dihydro[1,4]dioxino[2,3-f]quinoline], the melting point fell in the range of 198 to 199 °C.

On to `COc1cc2c(c3cccnc13)O[C@@H](CN1CC=C(c3c[nH]c4ccc(F)cc34)CC1)CO2` (as salt: fumarate) [Example 17, 2-[4-(5-Fluoro-1H-indol-3-yl)-3,6-dihydro-2H-pyridin-1-ylmethyl]-6-methoxy-2,3-dihydro[1,4]dioxino[2,3-f]qiuinoline], for which the melting point came out at 217 °C.

Compound `N#Cc1ccc2[nH]cc(C3=CCN(CC4COc5ccc6ncccc6c5O4)CC3)c2c1` (centres unmarked) (as salt: fumarate) [Example 5, 3-[1-(2,3-Dihydro[1,4]dioxino[2,3-f]quinolin-2-ylmethyl)-1,2,3,6-tetrahydropyridin-4-yl]-1H-indole-5-carbonitrile] yielded a melting point of 159 to 161 °C.

With `Nc1ccc2c3c(ccc2n1)OC[C@H](CN1CC=C(c2c[nH]c4ccc(F)cc24)CC1)O3` (as salt: fumarate) (hydrate or solvate) [Example 18, 2-[4-(5-Fluoro-1H-indol-3-yl)-3,6-dihydro-2H-pyridin-1-ylmethyl]-2,3-dihydro[1,4]dioxino[2,3-f]guinolin-8-ylamine], the melting point was 245 °C.

On to `Fc1cc2c(c3cccnc13)OC(CN1CC=C(c3c[nH]c4ccccc34)CC1)CO2` (centres unmarked) [Example 16, 6-Fluoro-2-[4-(1H-indol-3-yl)-3,6-dihydro-2H-pyridin-1-ylmethyl]-2,3-dihydro[1,4]dioxino[2,3-f]quinoline], for which the melting point amounted to 215 °C. Besides, at human 5HT1A receptors (setting [2]), the Ki stood at 55.9 nM. This compound also came in with a Ki at serotonin transporter of 21 nM.

For `Fc1ccc2[nH]cc(CC3CCN(C[C@H]4COc5ccc6ncccc6c5O4)CC3)c2c1` (as salt: oxalate) [Example 3], the melting point came out at 184 °C.

Regarding `Cc1ccc2c3c(ccc2n1)OCC(CN1CC=C(c2c[nH]c4cc(F)ccc24)CC1)O3` (centres unmarked) (as salt: oxalate) (hydrate or solvate) [Example 10, 2-[4-(6-Fluoro-1H-indol-3-yl)-3,6-dihydro-2H-pyridin-1-ylmethyl]-8-methyl-2,3-dihydro[1,4]dioxino[2,3-f]quinoline], the melting point lay in the range of 140 to 143 °C.

In turn, `Cc1ccc2c3c(ccc2n1)OC[C@H](CN1CC=C(c2c[nH]c4c(F)cccc24)CC1)O3` [Example 21] returned a melting point of 205 to 221 °C. The compound also registered a Ki at human 5HT1A receptors of 7.75 nM. The compound further showed a Ki on serotonin transporter of 2.94 nM. In addition, in data set [1], the IC50 came out at 51.7 nM and the Emax is 100%.

Consider `Cc1ccc2[nH]cc(C3=CCN(CC4COc5ccc6nc(C)ccc6c5O4)CC3)c2c1` (centres unmarked) (as salt: fumarate) (hydrate or solvate) [Example 22, 2-[4-(5-Methyl-1H-indol-3-yl)-3,6-dihydro-2H-pyridin-1-ylmethyl]-8-methyl-2,3-dihydro[1,4]dioxino[2,3-f]quinoline], for which the melting point was in the range of 150 to 155 °C.
